Where “and” joins values, the source holds several entries; their conditions need not be identical. Equal entries are not always repeated.
Assays:
BR16 cells = assay: Tail vein injection of in vitro pre-treated BR16 cells, metastasis seeding; type: in vivo, NSG mice
Method: To test whether ouabain and digitoxin would also enable CTC clusters disruption in vivo, the inventors took a dual approach. First, the inventors tested whether a 17-day in vitro treatment with ouabain and digitoxin would translate into a reduced ability of the treated cells to efficiently seed metastasis in untreated mice (FIG. 7A). To this end, upon treatment, BR16 cells stably expressing GFP-luciferase were injected into the tail vein of NSG mice and noninvasively monitored through luminescence imaging for their ability to seed and propagate metastatic lesions.
For tail vein experiments, NOD SCID Gamma (NSG) mice (Jackson Labs) were injected with 1×10^6 BR16-mCherry cells resuspended in 100 μl D-PBS and monitored with IVIS Lumina II (Perkin Elmer). For CTC xenograft mouse model isolation, 1×10^6 LM2-GFP, 1×10^6 BRx50-GFP or 1×10^6 BR16-GFP cells were resuspended in 100 μl of 50% Cultrex PathClear Reduced Growth Factor Basement Membrane Extract (R&D Biosystems, Cat #3533-010-02) in D-PBS and injected orthotopically in NSG mice. Blood draw was performed 4-5 weeks after tumor onset for LM2 cells, 5-6 months after tumor onset for BR16 and 6-7 months after tumor onset for BRx50 cells.

BRx50 CTC cell line = assay: 17-day treatment, WGBS and i-cisTarget analysis of DMRs that gain methylation; type: cell-based, human; details: 20 nM
Method: (§1) In order to assess the effect of clustering on DNA methylation patterns and proliferation signature directly BR16 and BRx50 cell lines were cultured for 17 days to ensure that at least 4 divisions would take place. This is to allow proper time for DNA methylation remodeling to take place.
(§2) Under these conditions, for both CTC derived cell lines, a subset of cluster-associated hypomethylated DMRs from patient and xenografts regain ≥20% methylation.
(§3) Proteinase K digestion and bisulfite treatment was performed according to manufacturer's instructions for EZ DNA Methylation Direct Kit (Zymo, Cat #D5020). Bisulfite-treated DNA was eluted using 9 μl of Elution Buffer and used for library generation with TruSeq DNA methylation kit (Illumina, Cat #EGMK91396) according to manufacturer's instructions. For amplification, 18 cycles were performed using Failsafe Enzyme (Illumina, Cat #FSE51100) and indexes were introduced with Index Primers' Kit (Illumina, Cat #EGIDX81312). Library purification was performed using Agencourt AMPure XP beads at a ratio of 1:1 according to manufacturer's instructions. To avoid DNA loss during pipetting steps, Corning DeckWork low binding barrier pipet tips were used (Sigma, Cat #CLS4135-4X960EA). Library concentration was estimated using Qubit DS DNA HS Assay Kit according to manufacturer's instructions (Invitrogen, Cat #Q32854).
(§4) An enrichment score (ES) indicates the over- or underrepresentation of a certain object within a sample of many objects (=enrichment). […] A negative enrichment score indicates the opposite, namely that a feature is less present than to be expected by the values of other features in the sample. […] An enrichment score can be normalized by dividing a specific ES by the mean of the enrichment scores for all objects in the dataset to yield a normalized enrichment score (NES). Normalization of the enrichment score accounts for differences in gene set size and in correlations between gene sets and the expression dataset; therefore, a normalized enrichment scores (NES) can be used to compare analysis results across gene sets. Only TFBS with a NES score […] shown in the analysis.

BR16 CTC cell line = assay: as above; type: cell-based, human; details: 20 nM, 17-day treatment
Method: as §1, §2, §3, §4

BR16 CTC-derived cells = assay: FDA-approved compound screen for CTC cluster dissociation (high content imaging); type: cell-based, human; details: even at lowest concentration tested (0.1 μM), 2 days, hypoxia
Method: In order to identify actionable vulnerabilities of CTC clusters, and to test whether the epigenetic and transcriptional features of clustered CTCs are reversible upon cluster dissociation into single cells the following steps were undertaken. First, the expression of all known cell-cell junction (CCJ) components in patient samples obtained from normal breast (TGCA REF), breast cancer (TOGA REF), single CTCs and CTC clusters were assessed (Aceto et al. Cell 2014). While breast cancer cells tend to only partially reduce their CCJ repertoire compared to normal breast cells, CTCs express only a small fraction of CCJ components, likely as a consequence to their increased motility. Yet, CTC clusters retain a higher number of CCJs as compared to single CTCs. […] To this end, 2′486 FDA-approved compounds were evaluated for their ability to dissociate clusters of human breast CTC-derived cells. Cluster dissociation was assessed using a high content screening microscope and comparing cells treated with each individual compound to steady state clustered BR16 cells and 40 μm-filtered BR16 single cell suspension as negative and positive controls, respectively (FIG. 4a). […] For the majority of the 2′486 FDA-approved compounds, when using a 5 μM concentration for 2 days in hypoxic conditions, no detectable reduction in cell viability (>70% viability) nor mean cluster size (>450 μm2) in BR16 CTC-derived cells was observed. […] These compounds include inhibitors of Na^+/K^+ ATPases (n=6), HDACs (n=2), nucleotide biosynthesis (n=5), kinases (n=4), GPCRs (n=2), cholesterol biosynthesis (n=1), nuclear export (n=1), tubulin (n=9), as well as DNA binding compounds (n=8) and antibiotics (n=1).
A library containing 2,486 FDA-approved compounds was purchased from the Nexus Platform ETH Zurich. Each compound was resuspended using CTC medium at a 15 μM concentration and 20 μl were aliquoted in duplicate in a total of 64 Flat Bottom Clear Ultra Low attachment 96-well plates (Corning, Cat #3474).
To reduce cluster size in CTC derived cell lines, a 40 μm cell strainer was used (Corning, Cat #431750). […] Plates were incubated in hypoxia (5% oxygen) for 2 days and then 20 μl were transferred into a 96 well Black/clear Tissue culture treated plate (BD Falcon, Cat #353219) containing 40 μl of D-PBS (Invitrogen, Cat #14190169) and stained for 1 hr at 37° C. with a final concentration of 4 μM Hoechst 34580 (Invitrogen, Cat #H21486), 2 μM TMRM (Invitrogen, Cat #T668) and 4 μM TOTO-3 (Invitrogen, Cat #T3604). For each plate, two positive controls (non-treated cells) and two negative controls (non-treated and […] cells) were included. Z-factors were calculated per individual plate using the following formula: Z′=1−3(σs+σc)/|μs−μc|^3 (σ: standard deviation, μ: mean, s: positive control and c: negative control) (Martin et al., PLoS One 9, e88338, 2014) and ranged between 0.62-0.937. Plates were scanned using Operetta High Content Imaging System (Perkin Elmer) and cluster analysis was performed using Harmony High Content Imaging and Analysis Software (Perkin Elmer).

[1] = tested on: BRx50 human CTC-derived cells; assay: as above; type: cell-based; details: even at lowest concentration tested (0.1 μM)

## C[C@H]1O[C@@H](O[C@H]2[C@@H](O)C[C@H](O[C@H]3[C@@H](O)C[C@H](O[C@H]4CC[C@@]5(C)[C@H](CC[C@@H]6[C@@H]5CC[C@]5(C)[C@@H](C7=CC(=O)OC7)CC[C@]65O)C4)O[C@@H]3C)O[C@@H]2C)C[C@H](O)[C@@H]1O [digitoxin, Digitoxin]
BR16 cells; cancer cells in lungs, pre-treated cells, day 1
  expression of cleaved caspase 3 compared to control cells: significant increase
BR16 cells; cells pre-treated 17 days in vitro, 20 nM, tail vein, day 0
  ability of BR16 cells to lodge in the lung tissue immediately after injection (bioluminescence flux): did not affect
BR16 cells; cells pre-treated 17 days in vitro, 20 nM, tail vein, day 1
  ability to survive during the first day upon arrival (bioluminescence flux): reduced ability to survive
BR16 cells; pre-treated cells, no further treatment in vivo, 72 days upon injection
  metastatic outgrowth: delayed metastatic outgrowth
BRx50 CTC cell line
  NES score of TFBS BCL11A in DMRs with ≥20% gain in methylation: 7.65
  NES score of TFBS BDP1 in DMRs with ≥20% gain in methylation: 6.83
  NES score of TFBS BHLHE40/4 in DMRs with ≥20% gain in methylation: 4.61
  NES score of TFBS FOS in DMRs with ≥20% gain in methylation: 4.2 and 3.4
  NES score of TFBS HMBOX1 in DMRs with ≥20% gain in methylation: 3.749
  NES score of TFBS HSF1 in DMRs with ≥20% gain in methylation: 7.2
  NES score of TFBS KDM5D in DMRs with ≥20% gain in methylation: 3.77
  NES score of TFBS LEF1 in DMRs with ≥20% gain in methylation: 3.01
  NES score of TFBS LSM6 in DMRs with ≥20% gain in methylation: 3.05
  NES score of TFBS OCT4 in DMRs with ≥20% gain in methylation: 3.49 and 3.4 and 3.37
  NES score of TFBS POU1F1 in DMRs with ≥20% gain in methylation: 4.02 and 3.98
  NES score of TFBS REST in DMRs with ≥20% gain in methylation: 4.85 and 3.16 and 3.11
  NES score of TFBS STAT3 in DMRs with ≥20% gain in methylation: 3.22
  NES score of TFBS ZKSCAN8 in DMRs with ≥20% gain in methylation: 4.32
  NES score of TFBS ZNF493 in DMRs with ≥20% gain in methylation: 3.88
  number of DMRs with ≥20% gain in methylation: (n = 124)
BR16 CTC cell line
  NES score of TFBS BDP1 in DMRs with ≥20% gain in methylation: 4.18,
  NES score of TFBS CEBPD in DMRs with ≥20% gain in methylation: 3.76
  NES score of TFBS EZH2 in DMRs with ≥20% gain in methylation: 4.63
  NES score of TFBS FOS in DMRs with ≥20% gain in methylation: 6.40 and 3.63 and 3.25
  NES score of TFBS FOXG1/O1 in DMRs with ≥20% gain in methylation: 3.61
  NES score of TFBS IRX3 in DMRs with ≥20% gain in methylation: 5
  NES score of TFBS IRX6 in DMRs with ≥20% gain in methylation: 5 and 3.67
  NES score of TFBS KDM5A in DMRs with ≥20% gain in methylation: 4.355
  NES score of TFBS MEIS1 in DMRs with ≥20% gain in methylation: 3.11
  NES score of TFBS RORA in DMRs with ≥20% gain in methylation: 4.93 and 3.45
  NES score of TFBS SOX2 in DMRs with ≥20% gain in methylation: 3.22
  NES score of TFBS SOX18 in DMRs with ≥20% gain in methylation: 3.99 and 3.91
  NES score of TFBS STAT3 in DMRs with ≥20% gain in methylation: 3.31
  NES score of TFBS YAP5 in DMRs with ≥20% gain in methylation: 5.4 and 5.32 and 4.56
  NES score of TFBS ZNF92 in DMRs with ≥20% gain in methylation: 3.44
  number of DMRs with ≥20% gain in methylation: (n = 150)
BR16 CTC-derived cells
  mean cluster size: significant decrease in mean cluster size
[1]
  mean cluster size: significant decrease in mean cluster size
